From patent US4235776A, “Tetrahydro-2H-benzo[c]pyrroles” (Eli Lilly and Company, priority 1979, dated 1980)
Where a name gives a salt, the structure may show the parent alone.

Columns and labels:
[1] = system: 6-hydroxydopamine-lesioned rats; test: turning behavior in 6-hydroxydopamine-lesioned rats (dopamine agonist activity); type: in vivo, rat; conditions: 1 mg/kg intraperitoneal
Description: In this test, nigro-neostriatal-lesioned rats are employed prepared by the procedure of Ungerstedt and Arbuthnott, Brain Res, 24, 485 (1970). A compound having dopamine agonist activity upon injection causes the rats to turn in circles contralateral to the side of the lesion. After a latency period, which varies from compound to compound, the number of turns is counted over a 15-minute period.

prolactin = test: inhibition of prolactin secretion in reserpine-treated male rats (serum prolactin); type: in vivo, Sprague-Dawley rat; conditions: intraperitoneal, one hour after treatment, reserpine-pretreated rats
Protocol: The compounds of this invention are also useful as prolactin inhibitors and as such can be employed in the treatment of inappropriate lactation, such as postpartum lactation, and of galactorrhea.
Adult male rats of the Sprague-Dawley strain weighing about 200 g. were housed in an air-conditioned room with controlled lighting (lights on 6 a.m.-8 p.m.) and fed lab chow and water ad libitum. Each rat received an intraperitoneal injection of 2.0 mg. of reserpine in aqueous suspension 18 hours before administration of the isoindole. The purpose of the reserpine was to keep prolactin levels uniformly elevated. The compounds under test were dissolved in water and were injected intraperitoneally at doses ranging from 5 mg/kg down to 50 mcg/kg. Each compound was administered at each dose level to a group of 10 rats, and a control group of 10 intact males received an equivalent amount of solvent. One hour after treatment all rats were killed by decapitation, and 150 μl aliquots of serum were assayed for prolactin.
The difference between the prolactin level of the treated rats and prolactin level of the control rats divided by the prolactin level of the control rats gives the percent inhibition of prolactin secretion attributable to the compounds of this invention. In the table, column 1 gives the name of the compound; and columns 2-4 the percent prolactin inhibition at the given dose level.

mouse = test: intraperitoneal toxicity in the mouse; type: in vivo
Protocol: In using the compounds of this invention to inhibit prolactin secretion or to treat Prakinson's syndrome or for other pharmacologic action, a pharmaceutically active compound according to Formula I above, or a salt thereof with a pharmaceutically-acceptable acid, is administered to a subject suffering from Parkinsonism or in need of having their prolactin level reduced in an amount effective to alleviate some of the symptoms of Parkinsonism or to reduce an elevated prolactin level. Oral administration is preferred. If parenteral administration is used, the injection is preferably by the subcutaneous route using an appropriate pharmaceutical formulation. […] In particular, with intravenous or intramuscular administration, a water soluble pharmaceutically-acceptable salt is employed. For oral administration, a pharmaceutically active compound according to Formula I either as the free base or in the form of a salt thereof can also be mixed with standard pharmaceutical excipients and loaded into empty telescoping gelatin capsules or pressed into tablets. The oral dosage range is from about 0.01 to 10 mg/kg of mammalian weight and the parenteral dose range from about 0.0025 to 2.5 mg/kg of mammalian weight.

| Structure (SMILES) | rats exhibiting turning behavior [1] | average turns per rat ([1]; turns counted over a 15-minute period after latency) [turns per rat] | Percent Inhibition of Prolactin at a Given Dose Level (prolactin; 5 mg/kg) [%] | Percent Inhibition of Prolactin at a Given Dose Level (prolactin; 50 mcg/kg) [%] | Percent Inhibition of Prolactin at a Given Dose Level (prolactin; 500 mcg/kg) [%] | lethality (mouse; dosages of 100-300 mg/kg, intraperitoneal) | deaths (mouse; intraperitoneal dosages of 10-30 mg/kg) |
| --- | --- | --- | --- | --- | --- | --- | --- |
| CCCN(CCC)C1CCc2c[nH]cc2C1 (racemic) [dl-5-di-n-propylamino-4,5,6,7-tetrahydro-2H-benzo[c]pyrrole maleate] | 1/3 | 34 | 91 | 20 | 47 | fatal | no deaths |
| CCN(CC)C1CCc2c[nH]cc2C1 (racemic) [dl-5-diethylamino-4,5,6,7-tetrahydro-2H-benzo[c]pyrrole maleate] | – | – | 23 | – | 25 | – | – |
